Results reported in patent US20060135768A1, “Synthesis for hydroxyalkylated heterocyclic bases” (RIBAPHARM INC., priority 2002, published 2006).
In brackets after ≈: the same amount, converted by molar mass.

Experiment: Solubility of the heterocyclic base (adenine) in reaction solvents
Assay type: physicochemical

## Nc1ncnc2nc[nH]c12 [adenine]
Solvent DEF
  Solubility at 150° C.: 13.9 mg/mL (≈ 103 mM)
  Solubiity at RT: 1.36 mg/mL
Solvent DMA
  Solubility at 150° C.: 37.0 mg/mL (≈ 274 mM)
  Solubiity at RT: 4.00 mg/mL
Solvent DMF
  Solubility at 150° C.: 29.0 mg/mL (≈ 215 mM)
  Solubiity at RT: 2.90 mg/mL
